Source: patent publication US20160130278A1 (TAISHO PHARMACEUTICAL CO., LTD, priority 2013, published 2016)

These compounds were tested against T1, human type 1 glycine transporter (GlyT1) (Homo sapiens, UniProt P48067) (assay: Glycine uptake inhibition experiment ([3H]glycine uptake)). Settings: GlyT1.
T1 construct: T98G cells (glioma cells) expressing human type 1 glycine transporter (GlyT1) were used
T1 sequence (P48067 1-706): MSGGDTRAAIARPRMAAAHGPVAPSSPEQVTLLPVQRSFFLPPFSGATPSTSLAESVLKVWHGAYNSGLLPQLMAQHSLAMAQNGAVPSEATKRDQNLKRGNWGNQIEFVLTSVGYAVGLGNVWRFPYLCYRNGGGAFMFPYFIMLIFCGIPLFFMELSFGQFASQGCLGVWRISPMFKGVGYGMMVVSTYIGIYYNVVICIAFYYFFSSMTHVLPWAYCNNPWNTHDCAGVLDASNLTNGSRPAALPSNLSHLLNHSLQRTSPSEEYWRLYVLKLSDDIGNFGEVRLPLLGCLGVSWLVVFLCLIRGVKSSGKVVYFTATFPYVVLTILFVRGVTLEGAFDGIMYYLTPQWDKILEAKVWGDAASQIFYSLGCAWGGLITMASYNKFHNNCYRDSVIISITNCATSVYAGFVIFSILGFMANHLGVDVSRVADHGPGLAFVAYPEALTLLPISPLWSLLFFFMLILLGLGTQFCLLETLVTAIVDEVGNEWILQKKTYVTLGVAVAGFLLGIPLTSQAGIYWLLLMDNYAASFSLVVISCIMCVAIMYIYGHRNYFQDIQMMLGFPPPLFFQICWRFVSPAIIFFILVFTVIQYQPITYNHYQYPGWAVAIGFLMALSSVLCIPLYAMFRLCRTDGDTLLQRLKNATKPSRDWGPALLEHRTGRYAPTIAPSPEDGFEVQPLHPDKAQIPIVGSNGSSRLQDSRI
Type: cell-based
Procedure, shortened: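 T98G glioma cells expressing human GlyT1 were pretreated 10 min with compound in HEPES buffer pH 7.4 (0.2% BSA), then incubated with compound plus 250 nM final [3H]glycine for 15 min at room temperature. Intracellular radioactivity was counted after NaOH lysis; 10 μM ALX5407 defined non-specific uptake. IC50 came from 10^−9–10^−5 M curves.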

Row | Structure (SMILES) | IC50
1 | O=C(NC(c1cccc(-n2nccn2)c1)C1(O)CCCC1)c1nccc(C(F)(F)F)c1Cl (centres unmarked) [Compound 79, 3-chloro-N-{(1-hydroxycyclopentyl)[3-(2H-1,2,3-triazol-2-yl)phenyl]methyl}-4-(trifluoromethyl)pyridine-2-carboxamide] | 310 nM
2 | O=C(NC(c1cccc(F)c1Cl)[C@]1(O)CC[C@@H](F)CC1)c1ccc(C(F)(F)F)cc1-n1cccn1 (single isomer, unassigned) [Compound 390, N-[(2-chloro-3-fluorophenyl)(cis-4-fluoro-1-hydroxycyclohexyl)methyl]-2-(1H-pyrazol-1-yl)-4-(trifluoromethyl)benzamide] | 130 nM
3 | O=C(NC(c1cccc(F)n1)C1(O)CCC(F)(F)CC1)c1ccnc(C(F)(F)F)c1Cl (single isomer, unassigned) [Compound 359, 3-chloro-N-[(4,4-difluoro-1-hydroxycyclohexyl)(6-fluoropyridin-2-yl)methyl]-2-(trifluoromethyl)pyridine-4-carboxamide] | 250 nM
4 | O=C(N[C@@H](c1cccc(Br)c1)[C@]1(O)CC[C@H](F)CC1)c1nccc(C(F)(F)F)c1Cl [Compound 102, N-[(S)-(3-bromophenyl)(trans-4-fluoro-1-hydroxycyclohexyl)methyl]-3-chloro-4-(trifluoromethyl)pyridine-2-carboxamide] | 150 nM
5 | O=C(NC(c1cccc(F)c1Cl)[C@]1(O)CC[C@@H](F)CC1)c1ccccc1C(F)(F)F (single isomer, unassigned) [Compound 276, N-[(2-chloro-3-fluorophenyl)(cis-4-fluoro-1-hydroxycyclohexyl)methyl]-2-(trifluoromethyl)benzamide] | 1600 nM
6 | O=C(NC(c1ccc(F)cc1)C1(O)CCCC1)c1nccc(C(F)(F)F)c1Cl (single isomer, unassigned) [Compound 59, 3-chloro-N-[(4-fluorophenyl)(1-hydroxycyclopentyl)methyl]-4-(trifluoromethyl)pyridine-2-carboxamide] | 9500 nM
7 | O=C(NC(c1cccc(F)c1Cl)[C@]1(O)CC[C@@H](F)CC1)c1ccccc1C1CC1 (single isomer, unassigned) [Compound 365, N-[(2-chloro-3-fluorophenyl)(cis-4-fluoro-1-hydroxycyclohexyl)methyl]-2-cyclopropylbenzamide] | 2800 nM
8 | O=C(NC(c1ccccc1Cl)C1(O)CCCC1)c1nccc(C(F)(F)F)c1Cl (centres unmarked) [Compound 44, 3-chloro-N-[(2-chlorophenyl)(1-hydroxycyclopentyl)methyl]-4-(trifluoromethyl)pyridine-2-carboxamide] | 66 nM
9 | CCn1cc(-c2cccc(C(NC(=O)c3cc(C(F)(F)F)cnc3Cl)C3(O)CCC(F)(F)CC3)c2)cn1 (centres unmarked) [Compound 202, 2-chloro-N-{(4,4-difluoro-1-hydroxycyclohexyl)[3-(1-ethyl-1H-pyrazol-4-yl)phenyl]methyl}-5-(trifluoromethyl)pyridine-3-carboxamide] | 900 nM
10 | CCn1cc(-c2cccc(C(NC(=O)c3c(Cl)ccc(Cl)c3OC)C3(O)CCC(F)(F)CC3)c2)cn1 (centres unmarked) [Compound 182, 3,6-dichloro-N-[(4,4-difluoro-1-hydroxycyclohexyl)[3-(1-ethyl-1H-pyrazol-4-yl)phenyl]methyl}-2-methoxybenzamide] | 580 nM
11 | CC(C)n1cc(-c2cccc(C(NC(=O)c3nccc(C(F)(F)F)c3Cl)C3(O)CCC(F)(F)CC3)c2)cn1 (single isomer, unassigned) [Compound 134, 3-chloro-N-[(4,4-difluoro-1-hydroxycyclohexyl){3-[1-(propan-2-yl)-1H-pyrazol-4-yl]phenyl}methyl]-4-(trifluoromethyl)pyridine-2-carboxamide] | 31 nM
12 | O=C(NC(c1cccc(-c2cnn(CC(F)(F)F)c2)c1)C1(O)CCC(F)(F)CC1)c1nccc(C(F)(F)F)c1Cl (centres unmarked) [Compound 132, 3-chloro-N-[(4,4-difluoro-1-hydroxycyclohexyl){3-[1-(2,2,2-trifluoroethyl)-1H-pyrazol-4-yl]phenyl}methyl]-4-(trifluoromethyl)pyridine-2-carboxamide] | 130 nM
13 | O=C(NC(c1cccc(-c2cccnc2)c1)C1(O)CCCC1)c1nccc(C(F)(F)F)c1Cl (centres unmarked) [Compound 20, 3-chloro-N-{(1-hydroxycyclopentyl)[3-(pyridin-3-yl)phenyl]methyl}-4-(trifluoromethyl)pyridine-2-carboxamide] | 17 nM
14 | O=C(NC(c1cc(Cl)ccn1)[C@]1(O)CC[C@@H](F)CC1)c1nccc(C(F)(F)F)c1Cl (single isomer, unassigned) [Compound 286, 3-chloro-N-[(4-chloropyridin-2-yl)(cis-4-fluoro-1-hydroxycyclohexyl)methyl]-4-(trifluoromethyl)pyridine-2-carboxamide] | 140 nM
15 | O=C(NC(c1cc(F)cc(Cl)c1)[C@]1(O)CC[C@@H](F)CC1)c1nccc(C(F)(F)F)c1Cl (single isomer, unassigned) [Compound 220, 3-chloro-N-[(3-chloro-5-fluorophenyl)(cis-4-fluoro-1-hydroxycyclohexyl)methyl]-4-(trifluoromethyl)pyridine-2-carboxamide] | 1800 nM
16 | CCn1cc(-c2cccc(C(NC(=O)c3nccc4ccccc34)C3(O)CCC(F)(F)CC3)c2)cn1 (centres unmarked) [Compound 139, N-{(4,4-difluoro-1-hydroxycyclohexyl)[3-(1-ethyl-1H-pyrazol-4-yl)phenyl]methyl}isoquinoline-1-carboxamide] | 430 nM
17 | O=C(NC(c1cccc(Br)c1)C1(O)CCCC1)c1nccc(C(F)(F)F)c1Cl (centres unmarked) [Compound 31, N-[(3-bromophenyl)(1-hydroxycyclopentyl)metyl]-3-chloro-4-(trifluoromethyl)pyridine-2-carboxamide] | 170 nM
18 | O=C(NC(c1ccc(F)cc1Cl)C1(O)CCCC1)c1nccc(C(F)(F)F)c1Cl (centres unmarked) [Compound 95, 3-chloro-N-[(2-chloro-4-fluorophenyl)(1-hydroxycyclopentyl)methyl]-4-(trifluoromethyl)pyridine-2-carboxamide] | 130 nM
19 | CCn1cc(-c2cccc(C(NC(=O)c3cccc(C(F)(F)F)c3C)C3(O)CCC(F)(F)CC3)c2)cn1 (single isomer, unassigned) [Compound 149, N-{(4,4-difluoro-1-hydroxycyclohexyl)[3-(1-ethyl-1H-pyrazol-4-yl)phenyl]methyl}-2-methyl-3-(trifluoromethyl)benzamide] | 2600 nM
20 | O=C(NC(c1ccccc1Cl)C1(O)CCC(F)(F)CC1)c1nccc(C(F)(F)F)c1Cl (single isomer, unassigned) [Compound 156, 3-chloro-N-[(2-chlorophenyl)(4,4-difluoro-1-hydroxycyclohexyl)methyl]-4-(trifluoromethyl)pyridine-2-carboxamide] | 1800 nM
21 | CCn1cc(-c2cccc(C(NC(=O)c3cccc(C(F)(F)F)c3Cl)C3(O)CCCC3)c2)cn1 (centres unmarked) [Compound 1, 2-chloro-N-{[3-(1-ethyl-1H-pyrazol-4-yl)phenyl](1-hydroxycyclopentyl)methyl}-3-(trifluoromethyl)benzamide] | 110 nM
22 | O=C(NC(c1cccc(Br)c1)C1(O)CCCCC1)c1nccc(C(F)(F)F)c1Cl (centres unmarked) [Compound 38, N-[(3-bromophenyl)(1-hydroxycyclohexyl)methyl]-3-chloro-4-(trifluoromethyl)pyridine-2-carboxamide] | 60 nM
23 | O=C(NC(c1ccccc1Cl)[C@]1(O)CC[C@@H](F)CC1)c1nccc(C(F)(F)F)c1Cl (single isomer, unassigned) [Compound 210, 3-chloro-N-[(2-chlorophenyl)(cis-4-fluoro-1-hydroxycyclohexyl)methyl]-4-(trifluoromethyl)pyridine-2-carboxamide] | 3200 nM
24 | Cc1nc2ccccn2c1C(=O)NC(c1cccc(F)c1Cl)[C@]1(O)CC[C@@H](F)CC1 (single isomer, unassigned) [Compound 261, N-[(2-chloro-3-fluorophenyl)(cis-4-fluoro-1-hydroxycyclohexyl)methyl]-2-methylimidazo[1,2-a]pyridine-3-carboxamide] | 7400 nM
25 | CC(C)n1cc(-c2cccc(C(NC(=O)c3nccc(C(F)(F)F)c3Cl)C3(O)CCC(F)(F)CC3)c2)cn1 (centres unmarked) [Compound 129, 3-chloro-N-[(4,4-difluoro-1-hydroxycyclohexyl){3-[1-(propan-2-yl)-1H-pyrazol-4-yl]phenyl}methyl]-4-(trifluoromethyl)pyridine-2-carboxamide] | 99 nM
26 | O=C(NC(c1cccc(F)c1)C1(O)CCC(F)(F)CC1)c1nccc(C(F)(F)F)c1Cl (single isomer, unassigned) [Compound 77, 3-chloro-N-[(4,4-difluoro-1-hydroxycyclohexyl)(3-fluorophenyl)methyl]-4-(trifluoromethyl)pyridine-2-carboxamide] | 1200 nM
